From US20260240166A1, “ANTIMICROBIAL AND ANTIVIRAL, BIOLOGICALLY ACTIVE POLYMER COMPOSITES EFFECTIVE AGAINST SARS-COV-2 AND OTHER VIRAL, BACTERIAL AND FUNGAL TARGETS, AND RELATED METHODS, MATERIALS, COATINGS AND DEVICES” (priority 2019, published 2026)

Test: Thermogravimetric analysis (thermal stability)
Format: physicochemical
Details: thermogravimetric profile (FIG. 6)

**Q.** For benzalkonium chloride, which “temperature to which stable / at which decomposition begins (TGA)” value is on record?
**A.** about 200 °C
